Measured values from patent US20230293526A1, “METHOD FOR TREATING CANCER WITH A REVERSE TRANSCRIPTASE INHIBITOR” (PrimeFour Therapeutics, Inc., priority 2020, published 2023).

Test system: cancer cell lines
Assay: Cancer cell proliferation activity of representative nucleosides, CellTiterGlo 72 h (Example 7, Tables 8 and 9)
Type: cell-based
Conditions: 72 h
Procedure: Dose response relationships on cell proliferation was assessed for representative nucleosides on cancer cell lines. Briefly, compound treatment of cells started one day after seeding with a final DMSO concentration of 0.1%, and was performed by nanodrop-dispensing using a Tecan Dispenser. 0.1% DMSO (solvent) and Staurosporine (10 μM) served as high control (100% viability) and low control (0% viability), respectively. Cells were cultured in the appropriate media. For the assays, cells were seeded in white cell culture-treated flat and clear bottom multiwell plates and incubated at 37° C. overnight before compound was added. After incubation for 72 h at 37° C. at 5% or 10% CO2 dependent on the medium, cell plates were equilibrated to room temperature for one hour, CellTiterGlo reagent (Promega) was added and luminescence was measured approximately an hour later using a luminometer.
Raw data were converted into percent cell viability relative to the high and low control, which were set to 100% and 0%, respectively.

`N#C[C@]1(CO)O[C@@H](n2ccc(N)nc2=O)C[C@@H]1O` [compound 29] showed an IC50 (72 h, 5637, bladder) of 0.23 µM, an IC50 (CLS439, bladder) of 3 µM and an IC50 (HS729, muscle) of 0.55 µM. It also gave an IC50 (J82, bladder) of 0.84 µM, an IC50 (JAR, placenta) greater than 50 µM and an IC50 (MT3, breast) of 0.12 µM. It also gave an IC50 (PC3, prostate) of 0.2 µM, an IC50 (RD, muscle) of 1.4 µM and an IC50 (T24, bladder) of 0.18 µM. For the same molecule, the IC50 (Homo sapiens, 22Rv1, 72 h, 22RV1, prostate) was 1.04 µM, the IC50 (Homo sapiens, 786-0, 72 h, 786O, kidney) was 1.61 µM and the IC50 (Homo sapiens, A204, 72 h, A204, muscle) was 0.03 µM. It also gave an IC50 (Homo sapiens, A549, 72 h, A549, lung) of 0.88 µM, an IC50 (Homo sapiens, A673, 72 h, A673, bone) of 0.2 µM and an IC50 (Homo sapiens, A2780, 72 h, A2780, ovary) of 0.64 µM. The IC50 (Homo sapiens, A-375, 72 h, A375, skin) was 0.57 µM, the IC50 (Homo sapiens, A-431, 72 h, A431, skin) was 0.3 µM and the IC50 (Homo sapiens, ACHN, kidney) was 0.71 µM. The IC50 (Homo sapiens, ASPC1, 72 h, ASPC1, pancreas) was 0.28 µM, the IC50 (Homo sapiens, BT-20, 72 h, BT20, breast) was 1.47 µM and the IC50 (Homo sapiens, BXPC-3, 72 h, BXPC3, pancreas) was 0.35 µM. For the same molecule, the IC50 (Homo sapiens, C-33-A, C33A, endometrial) was 0.24 µM, the IC50 (Homo sapiens, CAKI-1, 72 h, CAKI1, kidney) was 0.11 µM and the IC50 (Homo sapiens, COLO 205, 72 h, COLO205, colon) was 0.16 µM. It also gave an IC50 (Homo sapiens, COLO-678, 72 h, COLO678, colon) of 10.8 µM, an IC50 (Homo sapiens, Ca-Ski, CASKI, endometrial) of 5.22 µM and an IC50 (Homo sapiens, Caco-2, 72 h, CACO2, colon) greater than 50 µM. The IC50 (Homo sapiens, Calu-6, 72 h, CALU6, lung) was 2.54 µM, the IC50 (Homo sapiens, DLD-1, 72 h, DLD1, colon) was 0.77 µM and the IC50 (Homo sapiens, DU-145, 72 h, DU145, prostate) was 0.33 µM. It also gave an IC50 (Homo sapiens, EFO-21, 72 h, EFO21, ovary) of 1.19 µM, an IC50 (Homo sapiens, EJ-28, 72 h, EJ28, bladder) of 2.34 µM and an IC50 (Homo sapiens, Granta-519, 72 h, GRANTA-519, hematological) of 0.08 µM. For the same molecule, the IC50 (Homo sapiens, HCT-15, 72 h, HCT15, colon) was 0.81 µM, the IC50 (Homo sapiens, HCT-116, 72 h, HCT116, colon) was 0.55 µM and the IC50 (Homo sapiens, HEK293, 72 h, HEK293, kidney) was 12.7 µM. The IC50 (Homo sapiens, HL-60, 72 h, HL-60, hematological) was 0.54 µM, the IC50 (Homo sapiens, HT-29, 72 h, HT29, colon) was 1.06 µM and the IC50 (Homo sapiens, HT-1080, 72 h, HT1080, connective tissue) was 0.35 µM. The IC50 (Homo sapiens, HeLa, endometrial) was 0.75 µM, the IC50 (Homo sapiens, HepG2, 72 h, HEPG2, liver) was 2.67 µM and the IC50 (Homo sapiens, Hs-578T, HS578T, breast) was 1.79 µM. The IC50 (Homo sapiens, IGROV-1, 72 h, IGROV1, ovary) was 1.37 µM, the IC50 (Homo sapiens, IMR-90, 72 h, IMR90, lung) was 2.73 µM and the IC50 (Homo sapiens, JEG-3, 72 h, JEG3, placenta) was 1.9 µM. For the same molecule, the IC50 (Homo sapiens, JIMT-1, 72 h, JIMT1, breast) was 0.21 µM, the IC50 (Homo sapiens, K562, 72 h, K-562, hematological) was 1.61 µM and the IC50 (Homo sapiens, Kasumi 1, 72 h, KASUMI-1, hematological) was 0.22 µM. For the same molecule, the IC50 (Homo sapiens, L-363, 72 h, L-363, hematological) was greater than 50 µM, the IC50 (Homo sapiens, LoVo, colon) was 0.44 µM and the IC50 (Homo sapiens, MCF7, 72 h, MCF7, breast) was greater than 50 µM. It also gave an IC50 (Homo sapiens, MDA-MB-231, 72 h, MDAMB231, breast) of 0.13 µM, an IC50 (Homo sapiens, MDA-MB-435, 72 h, MDAMB435, skin) of 2.12 µM and an IC50 (Homo sapiens, MDA-MB-436, 72 h, MDAMB436, breast) of 0.36 µM. For the same molecule, the IC50 (Homo sapiens, MDA-MB-468, 72 h, MDAMB468, breast) was 1.2 µM, the IC50 (Homo sapiens, MG-63, 72 h, MG63, bone) was 0.57 µM and the IC50 (Homo sapiens, MHH-ES-1, 72 h, MHHES1, bone) was 0.21 µM. It also gave an IC50 (Homo sapiens, MIA PaCa-2, 72 h, MIAPACA2, pancreas) of 1.93 µM, an IC50 (Homo sapiens, MINO, hematological) of 0.07 µM and an IC50 (Homo sapiens, MV4-11, 72 h, MV4-11, hematological) of 0.6 µM. For the same molecule, the IC50 (Homo sapiens, NCI-H23, 72 h, NCI-H23, lung) was 1.34 µM, the IC50 (Homo sapiens, NCI-H82, 72 h, NCIH82, lung) was greater than 50 µM and the IC50 (Homo sapiens, NCI-H292, 72 h, NCIH292, lung) was 0.79 µM. For the same molecule, the IC50 (Homo sapiens, NCI-H460, 72 h, NCIH460, ung) was 2.05 µM, the IC50 (Homo sapiens, OVCAR-3, 72 h, OVCAR3, ovary) was 0.58 µM and the IC50 (Homo sapiens, OVCAR-4, 72 h, OVCAR4, ovary) was 4.18 µM. It also gave an IC50 (Homo sapiens, PANC-1, 72 h, PANC1, pancreas) of 3.43 µM, an IC50 (Homo sapiens, PLC-PRF-5, 72 h, PLCPRF5, liver) greater than 50 µM and an IC50 (Homo sapiens, Panc1005, 72 h, PANC1005, pancreas) of 0.65 µM. It also gave an IC50 (Homo sapiens, Ramos, hematological) of 0.17 µM, an IC50 (Homo sapiens, SAOS-2, 72 h, SAOS2, bone) of 0.11 µM and an IC50 (Homo sapiens, SF-268, 72 h, SF268, brain) of 0.35 µM. It also gave an IC50 (Homo sapiens, SF-295, 72 h, SF295, brain) of 1.13 µM, an IC50 (Homo sapiens, SK-BR-3, 72 h, SKBR3, breast) of 0.65 µM and an IC50 (Homo sapiens, SK-HEP1, 72 h, SKHEP1, liver) of 0.24 µM. It also gave an IC50 (Homo sapiens, SK-LMS-1, 72 h, SKLMS1, uterus) of 3.74 µM, an IC50 (Homo sapiens, SK-MEL-5, 72 h, SKMEL5, skin) greater than 50 µM and an IC50 (Homo sapiens, SK-MEL-28, 72 h, SKMEL28, skin) of 2.63 µM. The IC50 (Homo sapiens, SK-N-AS, SKNAS, brain) was 4.41 µM, the IC50 (Homo sapiens, SK-N-SH, SKNSH, brain) was greater than 50 µM and the IC50 (Homo sapiens, SK-OV-3, 72 h, SKOV3, ovary) was 0.89 µM. It also gave an IC50 (Homo sapiens, SNB-75, 72 h, SNB75, brain) of 0.84 µM, an IC50 (Homo sapiens, SU-DHL10, 72 h, SU-DHL-10, hematological) of 0.5 µM and an IC50 (Homo sapiens, SU-DHL-6, 72 h, SU-DHL-6, hematological) of 0.8 µM. For the same molecule, the IC50 (Homo sapiens, SW-620, 72 h, SW620, colon) was 2.64 µM, the IC50 (Homo sapiens, TE-671, 72 h, TE671, muscle) was 1.75 µM and the IC50 (Homo sapiens, THP-1, 72 h, THP-1, hematological) was 0.97 µM. The IC50 (Homo sapiens, U2OS, bone) was 5.32 µM, the IC50 (Homo sapiens, U-87 MG, U87MG, brain) was 0.5 µM and the IC50 (Homo sapiens, UMUC3, 72 h, UMUC3, bladder) was 1.16 µM. For the same molecule, the IC50 (Homo sapiens, UO-31, 72 h, UO31, kidney) was 0.66 µM, the IC50 (Homo sapiens, WSU-NHL, hematological) was 0.22 µM and the IC50 (NCI-H358M, NCIH358M, lung) was 0.04 µM. For the same molecule, the IC50 (PBMC, hematological) was 0.35 µM and the IC50 (RD-ES, RDES, bone) was 1.62 µM.
